Experimental findings from patent US5039806A, “Novel pharmacologically active compound pyridyl methylsulfinyl benzimidazole” (AB Hassle, priority 1983, dated 1991) are described below.

pIC50: −log10 of the molar value.

Usually pIC50 stands for −log10 of the IC50, conventionally taken in molar units. A higher pIC50 goes with a small IC50.

The first experiment concerns isolated rabbit gastric glands. In words: Inhibiting effect in vitro on acid secretion in isolated rabbit gastric glands (14C-aminopyrine accumulation). The experiment is classed as cell-based. The settings on record: Oryctolagus cuniculus, 1 h, logarithm of concentration (in M) giving 50% inhibition of aminopyrine accumulation; 5×10^-5 M histamine, 60 min, free base. The method, then: I. Inhibiting effect in vitro on acid secretion in isolated rabbit gastric glands
Isolated rabbit gastric glands were prepared as described by Berglindh et al., Acta physiol. scand. 1976. 96. 150-159. This method involves vascular perfusion of the rabbit stomach via the gastric arteries, scraping and scissor mincing of the separated gastric mucosa and collagenase (0.1%, Type I, Sigma Chemicals, St. Louis, MO. USA) digestion at 37° C. for 60-90 min. The glands are then harvested and filtered through nylon cloth to remove coarse fragments. The glands are thereafter incubated at 37° C. in a medium containing NaCl 132.4 mM, KCl 5.4 mM, […], NaH2 PO4 1.0 mM, MgSO4 1.2 mM, CaCl2 1.0 mM, glucose 10 mM, and 1 mg/ml rabbit albumine, pH 7.4.
The acid secretion in the isolated gland preparation was recorded by measuring the uptake of ^14 C-labelled aminopyrine into the glands as described by Berglindh et al., Acta physiol. scand. 1976. 97. 401-414. Accumulation of aminopyrine in the glands indicates gastric acid secretion within the glands. The standard medium contained 10^-6 M ^14 C-aminopyrine (Amersham, Great Britain). After the incubation period, the glands were centrifuged, the supernatant was removed and the glands dried, weighed and dissolved in Soluene -350 (Packard, IU. USA). Samples of the supernatant and glands were separately counted in a scintillation counter. The accumulation of ^14 C-labelled aminopyrine in the glands was calculated as detailed by Berglindh et al., Acta physiol. scand. 1976. 97. 403.
Glands were incubated for 60 min. in the presence of 5×10^-5 M histamine and the test compound to be studied. The free base of the test compound was dissolved in methanol. The final concentration of methanol was 1% in the incubation medium, having no influence on the aminopyrine accumulation ratio.
`Cc1ccnc(C[S+]([O-])c2nc3c(C)c(C)c(C)cc3[nH]2)c1C` (centres unmarked) [Example 145] showed a pIC50 of 6.20. On to `Cc1cnc(C[S+]([O-])c2nc3c(C)c(C)c(C)cc3[nH]2)cc1C` (centres unmarked) [Example 147], for which the pIC50 was 6.40. For the compound `Cc1cnc(C[S+]([O-])c2nc3c(C)c(C)c(C)cc3[nH]2)c(C)c1` (centres unmarked) [Example 149], the negative-log IC50 (pIC50) was 6.20. Same read-out and setting: the same measure for `Cc1ccnc(C[S+]([O-])c2nc3c(C)c(C)cc(C)c3[nH]2)c1C` (centres unmarked) [Example 151]: 6.30; for `CCOc1c(C)cnc(C[S+]([O-])c2nc3c(C)c(C#N)c(C)cc3[nH]2)c1C` (centres unmarked) [Example 153]: 5.20. For the compound `Cc1cnc(C[S+]([O-])c2nc3cc(C(F)(F)F)ccc3[nH]2)c(C)c1OCC1CCCO1` (centres unmarked) [Example 159], the negative-log IC50 (pIC50) was 6.30.

Another experiment relates to gastric acid secretion in conscious dog. In words: Inhibiting effect in vivo on gastric acid secretion in conscious dog (gastric fistula, histamine-stimulated). The note with it: intraduodenal (I.D.) dose 8 μmol/kg, free base in 0.5% Methocel. Here is the method: II. Inhibiting effect in vivo on gastric acid secretion in conscious dog
Chronic gastric fistula dogs were used. These dogs have been surgically provided with a gastric cannula in the stomach and a duodenal fistula used for direct intraduodenal administration of test compounds. Following a 4 weeks' recovery period after surgery, tests were performed once a week on each dog. Food and water were withdrawn 18 hours before each test.
Gastric acid secretion was induced by continuous infusion of histamine at individual doses (100-300 nmol/kg,h), resulting in submaximal secretion of gastric acid. At least 2 hours after onset of stimulation, when the gastric acid secretion had reached a steady level, the test compounds in the form of free base suspended in 0.5% Methocel® (90 HG, 15.000, Dow Chem. Corp.), were given intraduodenally at doses from 1 to 8 μmol/kg. The gastric juice was collected by free flow from the gastric cannula in consecutive 30 minutes samples for 3 hours. The samples were titrated to pH 7.0 with 0.1 M NaOH using a Radiometer automatic titrator and the acid output was calculated.
The percent inhibition of acid secretion was calculated by comparing in each dog the acid output in the tests to the acid output in control tests when only the vehicle was given.
Turning to `COc1c(C)cnc(CSc2nc3cc4ccccc4cc3[nH]2)c1C` [Example 84], the “% INHIB (peak inhibitory effect on acid secretion)” value was determined as 85%. With `COc1c(C)cnc(CSc2nc3cc(SC)ccc3[nH]2)c1C` [Example 109], the “% INHIB (peak inhibitory effect on acid secretion)” value is 60%.
